The nature of this experiment: Antagonist activity at human CCR2 in PBMCs assessed as inhibition of chemotaxis.
In the case of `NS(=O)(=O)c1ccc(C(=O)N[C@@H]2CCCC[C@@H]2NC(=O)CNC(=O)c2cc(C(F)(F)F)ccc2NC(=O)C2CCCCC2)cc1`, the IC50 was 0.5 nM.
As to `Nc1ccc(C(F)(F)F)cc1C(=O)NCC(=O)N[C@H]1CCCC[C@H]1NC(=O)c1ccc(S(N)(=O)=O)cc1`, the IC50 came out at 63 nM.
As for `CSc1ccc(C(=O)N[C@@H]2CCCC[C@@H]2NC(=O)CNC(=O)c2cccc(C(F)(F)F)c2)cc1`, the figure is 1200 nM; as for `O=C(CNC(=O)c1cccc(C(F)(F)F)c1)N[C@H]1CCCC[C@H]1NC(=O)c1ccc(I)cc1`, 160 nM; as for `NS(=O)(=O)c1ccc(C(=O)N[C@@H]2CCCC[C@@H]2NC(=O)CNC(=O)c2cccc(C(F)(F)F)c2)cc1`, 130 nM.

One may read the IC50 as the midpoint of a concentration-inhibition curve.

Values taken from BindingDB's records for doi:10.1021/jm701488f (2008).
